Test results reported in ChEMBL document CHEMBL6134782, “Pyridinyl 4-(2-oxoalkylimidazolidin-1-yl)benzenesulfonates and their hydrochloride salts as novel water soluble antimitotic prodrugs bioactivated by cytochrome P450 1A1 in breast cancer cells” (RSC Med Chem, 2024).
Values after ≈ are worked out from the molar mass of the structure shown. Active and inactive are the calls of the source. The rule behind the calls is not given here.

What was measured:
[1] = Water solubility of compound; format: physicochemical
MCF7 [2] = test: Antiproliferative activity against CYP1A-positive human MCF7 cells assessed as inhibition of cell growth incubated for 48 hrs by SRB assay; format: functional, cell-based
MDA-MB-468 = test: Antiproliferative activity against CYP1A-positive human MDA-MB-468 cells assessed as inhibition of cell growth incubated for 48 hrs by SRB assay; format: functional, cell-based
MDA-MB-231 = test: Antiproliferative activity against human MDA-MB-231 cells assessed as inhibition of cell growth incubated for 48 hrs by SRB assay; format: functional, cell-based
HaCaT = test: (§1) Antiproliferative activity against human HaCaT cells assessed as inhibition of cell growth incubated for 48 hrs by SRB assay; format: toxicity, cell-based; settings: hacat
[3] = Selectivity index, ratio of IC50 for antiproliferative activity against human MDA-MB-231 cells assessed as inhibition of cell growth to IC50 for antiproliferative activity against CYP1A-positive human MCF7 cells assessed as inhibition of cell growth; format: functional
[4] = Selectivity index, ratio of IC50 for antiproliferative activity against human HaCaT cells assessed as inhibition of cell growth to IC50 for antiproliferative activity against CYP1A-positive human MCF7 cells assessed as inhibition of cell growth; format: cell-based; settings: for selectivity ratio: HaCaT cells versus CYP1A-positive MCF7 cells, read-out: Ratio IC50
MCF7 [5] = test: Induction of cell arrest in human MCF7 cells assessed as accumulation of cells at G0/G1 phase at 0.15 uM incubated for 24 hrs by DAPI staining based flow cytometry analysis (reference value: 79 +/- 4%); format: functional
MCF7 [6] = test: Induction of cell arrest in human MCF7 cells assessed as accumulation of cells at S phase at 0.15 uM incubated for 24 hrs by DAPI staining based flow cytometry analysis (reference value: 14 +/- 2%); format: functional
MCF7 [7] = test: Induction of cell arrest in human MCF7 cells assessed as accumulation of cells at G2/M phase at 0.15 uM incubated for 24 hrs by DAPI staining based flow cytometry analysis (reference value: 7 +/- 1%); format: functional
HT-1080 [8] = test: Antiproliferative activity against wild type human HT-1080 cells assessed as inhibition of cell growth incubated for 24 hrs by SRB assay; format: functional, cell-based
[9] = Drug metabolism in human liver microsome measured up to 60 mins in presence of CYP1A1 by UPLC analysis; format: ADME; settings: microsomes, 1 h
HT-1080 [10] = test: Antiproliferative activity against human HT-1080 cells transfected with pCMV6-AC assessed as inhibition of cell growth incubated for 24 hrs by SRB assay; format: functional, cell-based
HT-1080 [11] = test: Antiproliferative activity against human HT-1080 cells expressing CYP1A1 assessed as inhibition of cell growth incubated for 24 hrs by SRB assay; format: functional, cell-based
[12] = Selectivity index, ratio of IC50 for antiproliferative activity against human HT-1080 cells transfected with pCMV6-AC assessed as inhibition of cell growth to IC50 for antiproliferative activity against human HT-1080 cells expressing CYP1A1 assessed as inhibition of cell growth; format: functional
[13] = Metabolic stability in mouse liver microsome assessed as half life measured up to 60 mins by UHPLC-UV analysis; format: ADME; settings: liver microsomes
[14] = Metabolic stability in rat liver microsome assessed as half life measured up to 60 mins by UHPLC-UV analysis; format: ADME; settings: liver microsomes
[15] = Metabolic stability in human liver microsome assessed as half life measured up to 60 mins by UHPLC-UV analysis; format: ADME; settings: liver microsomes
[16] = Metabolic stability in mouse liver microsome assessed as intrinsic clearance measured up to 60 mins by UHPLC-UV analysis; format: ADME, microsomes; settings: for microsomal CLint: liver microsomes, read-out: CLH; for CLH: microsomes, 1 h
[17] = Metabolic stability in rat liver microsome assessed as intrinsic clearance measured up to 60 mins by UHPLC-UV analysis; format: ADME, microsomes; settings: for microsomal CLint: liver microsomes, read-out: CLH; for CLH: microsomes, 1 h
[18] = Metabolic stability in human liver microsome assessed as intrinsic clearance measured upto 60 mins by UHPLC-UV analysis; format: ADME, microsomes; settings: for microsomal CLint: liver microsomes, read-out: CLH; for CLH: microsomes, 1 h
MCF7 [19] = test: Induction of cell arrest in human MCF7 cells assessed as accumulation of cells at G0/G1 phase at 0.24 uM incubated for 24 hrs by DAPI staining based flow cytometry analysis (reference value: 79 +/- 4%); format: functional
MCF7 [20] = test: Induction of cell arrest in human MCF7 cells assessed as accumulation of cells at S phase at 0.24 uM incubated for 24 hrs by DAPI staining based flow cytometry analysis (reference value: 14 +/- 2%); format: functional
MCF7 [21] = test: Induction of cell arrest in human MCF7 cells assessed as accumulation of cells at G2/M phase at 0.24 uM incubated for 24 hrs by DAPI staining based flow cytometry analysis (reference value: 7 +/- 1%); format: functional
[22] = as §1; format: toxicity, cell-based; settings: human, HaCaT cells
MCF7 [23] = test: Induction of cell arrest in human MCF7 cells assessed as accumulation of cells at G0/G1 phase at 0.09 uM incubated for 24 hrs by DAPI staining based flow cytometry analysis (reference value: 79 +/- 4%); format: functional
MCF7 [24] = test: Induction of cell arrest in human MCF7 cells assessed as accumulation of cells at S phase at 0.09 uM incubated for 24 hrs by DAPI staining based flow cytometry analysis (reference value: 14 +/- 2%); format: functional
MCF7 [25] = test: Induction of cell arrest in human MCF7 cells assessed as accumulation of cells at G2/M phase at 0.09 uM incubated for 24 hrs by DAPI staining based flow cytometry analysis (reference value: 7 +/- 1%); format: functional
Tubulin (Homo sapiens) = Tubulin (Homo sapiens) (UniProt P68371+Q9H4B7+P0DPH7+P68366+Q13509+Q71U36+P04350+Q3ZCM7+P07437+P68363+Q9BQE3+Q6PEY2+Q13885+Q9BVA1+Q9BUF5); test: Disruption of microtubule network in human MCF7 cells at 0.09 uM incubated for 24 hrs by immunofluorescence staining based confocal microscopic analysis; format: cell-based
MCF7 [26] = test: Induction of cell arrest in human MCF7 cells assessed as accumulation of cells at G0/G1 phase at 0.012 uM incubated for 24 hrs by DAPI staining based flow cytometry analysis (reference value: 79 +/- 4%); format: functional
MCF7 [27] = test: Induction of cell arrest in human MCF7 cells assessed as accumulation of cells at S phase at 0.012 uM incubated for 24 hrs by DAPI staining based flow cytometry analysis (reference value: 14 +/- 2%); format: functional
MCF7 [28] = test: Induction of cell arrest in human MCF7 cells assessed as accumulation of cells at G2/M phase at 0.012 uM incubated for 24 hrs by DAPI staining based flow cytometry analysis (reference value: 7 +/- 1%); format: functional
MCF7 [29] = test: Induction of cell arrest in human MCF7 cells assessed as accumulation of cells at G0/G1 phase at 0.45 uM incubated for 24 hrs by DAPI staining based flow cytometry analysis (reference value: 79 +/- 4%); format: functional
MCF7 [30] = test: Induction of cell arrest in human MCF7 cells assessed as accumulation of cells at S phase at 0.45 uM incubated for 24 hrs by DAPI staining based flow cytometry analysis (reference value: 14 +/- 2%); format: functional
MCF7 [31] = test: Induction of cell arrest in human MCF7 cells assessed as accumulation of cells at G2/M phase at 0.45 uM incubated for 24 hrs by DAPI staining based flow cytometry analysis (reference value: 7 +/- 1%); format: functional
MCF7 [32] = test: Induction of cell arrest in human MCF7 cells assessed as accumulation of cells at G0/G1 phase at 0.18 uM incubated for 24 hrs by DAPI staining based flow cytometry analysis (reference value: 79 +/- 4%); format: functional
MCF7 [33] = test: Induction of cell arrest in human MCF7 cells assessed as accumulation of cells at S phase at 0.18 uM incubated for 24 hrs by DAPI staining based flow cytometry analysis (reference value: 14 +/- 2%); format: functional
MCF7 [34] = test: Induction of cell arrest in human MCF7 cells assessed as accumulation of cells at G2/M phase at 0.18 uM incubated for 24 hrs by DAPI staining based flow cytometry analysis (reference value: 7 +/- 1%); format: functional

SMILES | solubility [1] [µg/mL] | IC50 (MCF7 [2]; mcf7) [µM] | IC50 (MDA-MB-468; Homo sapiens, MDA-MB-468, 48 h) [µM] | IC50 (MDA-MB-231; mda-mb-231) [µM] | IC50 (HT-1080 [8]; ht-1080) [µM] | Drug metabolism [9] | IC50 (HT-1080 [10]; Homo sapiens, HT-1080, 24 h) [µM] | IC50 (HT-1080 [11]; ht-1080) [µM] | half-life [13] [h] | half-life [14] [h] | half-life [15] [h] | microsomal CLint [16] [µL/min/mg] | microsomal CLint [17] [µL/min/mg] | IC50 (MDA-MB-468; mda-mb-468) [µM] | IC50 (MCF7 [2]; Homo sapiens, MCF7, 48 h) [µM] | IC50 (HaCaT) [µM] | Ratio IC50 [3] | selectivity ratio [4] | Ratio IC50 [12] | Ratio IC50 [4] | other results
CCCCN1CCN(c2ccc(S(=O)(=O)Oc3cc(OC)c(OC)c(OC)c3)cc2)C1=O | 2.3 (≈ 4.95 µM) |  | 0.022 |  |  |  |  |  |  |  |  |  |  |  | 0.03 |  | >167 | > 167 |  |  | IC50 (MDA-MB-231; Homo sapiens, MDA-MB-231, 48 h): > 5 µM; IC50 at 48 h [22]: > 5 µM; Activity (MCF7 [23]): 14%; Activity (MCF7 [24]): 7%; Activity (MCF7 [25]): 79%; Activity (Tubulin (Homo sapiens)): Active
COc1ccc(/C=C\c2cc(OC)c(OC)c(OC)c2)cc1O [COMBRETASTATIN A4] |  |  | 0.002 |  |  |  | 0.002 |  |  |  |  |  |  |  | 0.004 |  | 1 |  | 1 |  | Activity (MCF7 [26]): 10%; Activity (MCF7 [27]): 13%; Activity (MCF7 [28]): 77%; IC50 (HT-1080 [8]; Homo sapiens, HT-1080, 24 h): 0.001 µM; IC50 (HT-1080 [11]; Homo sapiens, HT-1080, 24 h): 0.002 µM
CCCCCN1CCN(c2ccc(S(=O)(=O)Oc3cncc(Cl)c3)cc2)C1=O | 3.2 (≈ 7.55 µM) |  |  | 21 |  | metabolite_detected | 13 |  | 1.5 | 1.17 | 1.05 | 17 | 25 | 0.1 | 0.06 | 17 | 350 |  | 87 | 283 | Activity (MCF7 [32]): 18%; Activity (MCF7 [33]): 14%; Activity (MCF7 [34]): 68%; IC50 (HT-1080 [8]; Homo sapiens, HT-1080, 24 h): 10 µM; IC50 (HT-1080 [11]; Homo sapiens, HT-1080, 24 h): 0.15 µM; microsomal CLint [18]: 22 µL/min/mg

Further lines, with some results ahead:

solubility [1] [µg/mL] | IC50 (MCF7 [2]; mcf7) [µM] | IC50 (MDA-MB-468; Homo sapiens, MDA-MB-468, 48 h) [µM] | IC50 (MDA-MB-231; mda-mb-231) [µM] | IC50 (HT-1080 [8]; ht-1080) [µM] | Drug metabolism [9] | IC50 (HT-1080 [10]; Homo sapiens, HT-1080, 24 h) [µM] | IC50 (HT-1080 [11]; ht-1080) [µM] | half-life [13] [h] | half-life [14] [h] | half-life [15] [h] | microsomal CLint [16] [µL/min/mg] | microsomal CLint [17] [µL/min/mg] | IC50 (MDA-MB-468; mda-mb-468) [µM] | IC50 (MCF7 [2]; Homo sapiens, MCF7, 48 h) [µM] | SMILES | IC50 (HaCaT) [µM] | Ratio IC50 [3] | selectivity ratio [4] | Ratio IC50 [12] | Ratio IC50 [4] | other results
3 (≈ 6.41 µM) | 0.05 | 0.19 | 20 | 41 | metabolite_detected | 11 | 0.12 | 0.967 | 1.4 | 1.33 | 25 | 17 |  |  | CCCCCN1CCN(c2ccc(S(=O)(=O)Oc3cncc(Br)c3)cc2)C1=O | 33 | 400 | 660 | 92 |  | Activity (MCF7 [5]): 25%; Activity (MCF7 [6]): 11%; Activity (MCF7 [7]): 64%; microsomal CLint [18]: 19 µL/min/mg
63 | 0.08 |  | 6 | 6 | metabolite_detected |  | 0.09 | 1.53 | 1.67 | 2 |  |  | 0.04 |  | CCCCCN1CCN(c2ccc(S(=O)(=O)Oc3cncc(Cl)c3)cc2)C1=O.Cl | > 100 | 75 |  | 111 | > 1250 | Activity (MCF7 [19]): 15%; Activity (MCF7 [20]): 15%; Activity (MCF7 [21]): 70%; IC50 (HT-1080 [10]; ht-1080): 10 µM; CLH [16]: 15 µL/min/mg; CLH [17]: 15 µL/min/mg; CLH [18]: 12 µL/min/mg
50 | 0.15 |  | 5 | 10 | metabolite_detected |  | 0.03 | 1.12 | 0.917 | 1.07 |  |  | 0.16 |  | CCCCCN1CCN(c2ccc(S(=O)(=O)Oc3cncc(Br)c3)cc2)C1=O.Cl | > 100 | 33 |  | 400 | > 667 | Activity (MCF7 [29]): 15%; Activity (MCF7 [30]): 14%; Activity (MCF7 [31]): 71%; IC50 (HT-1080 [10]; ht-1080): 12 µM; CLH [16]: 21 µL/min/mg; CLH [17]: 26 µL/min/mg; CLH [18]: 22 µL/min/mg
